The results in this text go back to ChEMBL document CHEMBL1201862, “PubChem BioAssay data set” (2004).

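The compound was tested at five concentrations on cells cultured in 96-well plates, with a 48-hour exposure period. GI50 is the concentration that inhibits growth by half.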 Activity calls are given as the source filed them. No stated cut-off is given here; in the data, active = GI50 up to about 1.1 µM and inactive = higher.

Holding throughout (test): NCI tumour cell line growth inhibition, 48 h
The subject of test [1] is A549.
Test [2] concerns HOP-62.
Test [3] relates to HT-29.
For test [4], the system named is KM12.
Test [5] concerns LOX IMVI.
The subject of test [6] is MDA-N.
Test [7] concerns NCI-H522.
For test [8], the system named is OVCAR-3.
For test [9], the system named is OVCAR-4.
Test [10] concerns OVCAR-5.
Test [11] concerns OVCAR-8.
Test [12] deals with RPMI-8226.
The subject of test [13] is RXF 393.
The test system of test [14] is SF-268.
Test [15] relates to SK-MEL-2.
Test [16] has as its system SK-OV-3.
For test [17], the system named is SNB-19.
Test [18] relates to SW-620.
Test [19] has as its system U-251.
Test [20] has as its system UACC-257.

In the case of `COC1C(C)OC(OC2CC(C)(O)Cc3cc4c(c(O)c32)C(=O)c2c(O)cc3c(c2C4=O)OC2OC3(C)C(O)C(N(C)C)C2O)C(OC)C1(C)OC` (stereo not given), the GI50 was 0.00498 µM (active) in [1]; 0.0527 µM (active) in test [2]; 0.0243 µM (active) in test [3]; 0.00527 µM (active) in test [4]; 0.00316 µM (active) in test [5]; 0.00053 µM (active) in test [6]. Further, the GI50 is 0.00447 µM (active) in [7]; 0.00516 µM (active) in [8]; 0.19 µM (active) in test [9]; 0.0628 µM (active) in test [10]; 0.00496 µM (active) in test [11]; 0.015 µM (active) in test [12]. Further, the GI50 in [13] was 0.00463 µM (active); in test [14] it was 0.00484 µM (active); in test [15], 0.0158 µM (active); in test [16], 0.136 µM (active); in test [17] it was 0.00378 µM (active); in test [18], 0.00457 µM (active). The GI50 in [19] is 0.00285 µM (active); in test [20], 0.00553 µM (active).

For the compound `O=S1(=O)C(c2ccccc2)C(N2CCCCC2)C1C1CC2c3ccccc3C1c1ccccc12` (stereo not given), the GI50 is 8.17 µM (inactive) in test [1]; > 100 µM (inactive) in test [2]; 10.6 µM (inactive) in test [3]; 23.3 µM (inactive) in test [4]; > 100 µM (inactive) in test [5]; > 100 µM (inactive) in [6]. The GI50 in test [7] was 9.95 µM (inactive); in [8], 17.6 µM (inactive); in [9] it was 7.98 µM (inactive); in [10] it was > 100 µM (inactive); in test [11], > 100 µM (inactive); in [12], 4.5 µM (inactive). In addition, the GI50 was > 100 µM (inactive) in test [13]; > 100 µM (inactive) in test [14]; > 100 µM (inactive) in [15]; > 100 µM (inactive) in [16]; > 100 µM (inactive) in test [17]; > 28.4 µM (inactive) in test [18]. Moreover, the GI50 is > 85.1 µM (inactive) in test [19] and > 92.7 µM (inactive) in test [20].

Regarding `Cc1cc2nc3c(C#N)c(C)c(CCCl)c(Cl)n3c2cc1C`, the GI50 in test [1] is 7.19 µM (inactive); in test [2] it was 2.44 µM (inactive); in test [3], 2.46 µM (inactive); in [4], 6.1 µM (inactive); in test [5], 1.46 µM (inactive); in test [6] it was 2.61 µM (inactive). In addition, the GI50 in [7] is 12 µM (inactive); in test [8], 1.75 µM (inactive); in [9] it was 6.76 µM (inactive); in test [10], 2.18 µM (inactive); in [11] it was 2.63 µM (inactive); in [12], 2.58 µM (inactive). Moreover, the GI50 in [13] is 1.81 µM (inactive); in [14], 2.36 µM (inactive); in test [15], 1.87 µM (inactive); in test [16], > 28.6 µM (inactive); in test [17] it was 10.8 µM (inactive); in [18], 2.34 µM (inactive). Moreover, the GI50 in test [19] is > 43.5 µM (inactive); in [20] it was 2.23 µM (inactive).

On to `c1ccc(CC2COC(c3cccs3)=N2)cc1` (stereo not given), for which the GI50 is 92.7 µM (inactive) in [1]; > 100 µM (inactive) in [2]; > 100 µM (inactive) in [3]; > 89.3 µM (inactive) in [4]; > 74.1 µM (inactive) in test [5]; > 100 µM (inactive) in [6]. For the same compound, the GI50 in test [7] is > 84.7 µM (inactive); in test [8], > 86.5 µM (inactive); in test [9], > 100 µM (inactive); in test [10], > 100 µM (inactive); in [11] it was > 100 µM (inactive); in test [12], > 70.3 µM (inactive). For the same compound, the GI50 in [13] is 24.5 µM (inactive); in test [14] it was > 91 µM (inactive); in [15] it was 43.8 µM (inactive); in test [16] it was > 68.9 µM (inactive); in test [17], > 70.3 µM (inactive); in test [18] it was > 100 µM (inactive). The values for the GI50 in [19] and in test [20] were 53 µM (inactive) and > 100 µM (inactive), respectively.

With `COc1cc(CN2CCCCC2)cc2cc(C(=O)O)c(=O)oc12`, the GI50 in [1], in [2], in test [3], in test [4], in [5] and in test [6] was > 100 µM (inactive) each time. Further, the GI50 in [7], in test [8], in test [9], in test [10], in test [11] and in [12] was > 100 µM (inactive) in each case. In addition, the GI50 in test [13], in test [14], in [15], in test [16], in test [17] and in [18] was > 100 µM (inactive) throughout. The GI50 in test [19] and in [20] was > 100 µM (inactive) each time.

Consider `CC[C@@H]1/C=C/C=C/C[C@H](C)[C@@H](O)[C@@H](C)C(=O)[C@H](C)[C@@H](O)[C@H](C)C(=O)[C@H](C)[C@@H](O)[C@H](C)/C=C/C(=O)O[C@H]2[C@@H](C)[C@@H](CC1)O[C@@]1(CC[C@@H](C)[C@@H](CC(C)O)O1)[C@@H]2C` (stereo not given in full), for which the GI50 in test [1] is 0.012 µM (active); in [2], 4.38 µM (inactive); in test [3], 2.94 µM (inactive); in test [4], 3.41 µM (inactive); in [5], 5.83 µM (inactive); in test [6] it was 3.06 µM (inactive). In addition, the GI50 was 0.0188 µM (active) in test [7]; 2.62 µM (inactive) in test [8]; 0.057 µM (active) in test [9]; 3.63 µM (inactive) in test [10]; 0.00464 µM (active) in [11]; 0.057 µM (active) in test [12]. For the same compound, the GI50 in test [13] is 3.07 µM (inactive); in test [14], 6.98 µM (inactive); in [15], 4.58 µM (inactive); in test [16] it was 7.76 µM (inactive); in test [17], 0.00491 µM (active); in test [18], 5.32 µM (inactive). The GI50 was 0.00361 µM (active) in [19] and < 0.0025 µM (active) in test [20].

Consider `Nc1ncn(C2OC(COP(=O)(O)O)C(O)C2O)c(=O)n1` (stereo not given), for which the GI50 in test [1] was 45.9 µM (inactive); in [2], > 77.4 µM (inactive); in [3] it was > 100 µM (inactive); in [4], > 100 µM (inactive); in [5], > 100 µM (inactive); in test [6], > 100 µM (inactive). The GI50 in test [7] was > 87.9 µM (inactive); in test [8], > 100 µM (inactive); in test [9], > 100 µM (inactive); in [10], > 100 µM (inactive); in test [11], 40.7 µM (inactive); in test [12] it was > 100 µM (inactive). For the same compound, the GI50 in test [13] was > 100 µM (inactive); in [14], > 92 µM (inactive); in test [15] it was > 100 µM (inactive); in test [16], > 100 µM (inactive); in [17], > 100 µM (inactive); in test [18], > 100 µM (inactive). The GI50 in test [19] and in test [20] was > 100 µM (inactive) throughout.

For the compound `Cc1ccc(C2SC(=N)Nc3c2c(C)nn3C(=O)c2ccncc2)cc1` (stereo not given), the GI50 in [1], in test [2], in test [3], in test [4], in test [5] and in [6] was > 10 µM (inactive) throughout. The GI50 in [7], in [8], in [9], in test [10], in test [11] and in test [12] was > 10 µM (inactive) throughout. Moreover, the GI50 in [13], in test [14], in test [15], in test [16], in test [17] and in test [18] was > 10 µM (inactive) each time. Also, the GI50 in [19] and in test [20] was > 10 µM (inactive) throughout.

With `C/C=C/c1cc2c(cc1O)CC[C@@H]1[C@@H]2CC[C@]2(C)[C@@H](O)CC[C@@H]12`, the GI50 in test [1] is 0.0536 µM (active); in [2], 0.0791 µM (active); in [3], 6.34 µM (inactive); in test [4], 1.24 µM (inactive); in [5], 0.0357 µM (active); in [6] it was 0.0215 µM (active). For the same compound, the GI50 in test [7] is < 0.0142 µM (active); in [8] it was 0.0193 µM (active); in [9], 13.6 µM (inactive); in [10], 10.8 µM (inactive); in test [11], 0.182 µM (active); in [12], 0.0264 µM (active). Moreover, the GI50 in test [13] is 0.1 µM (active); in test [14], 0.217 µM (active); in test [15], 1.51 µM (inactive); in [16] it was 0.183 µM (active); in [17] it was 0.0695 µM (active); in test [18], 0.04 µM (active). In addition, the GI50 in [19] is 0.0315 µM (active); in [20] it was 0.132 µM (active).

As for `O=NN(CCCl)C(=O)NC1CCC(=O)NC1=O` (stereo not given), the GI50 was 182 µM (inactive) in [1]; 144 µM (inactive) in [2]; 807 µM (inactive) in [3]; 212 µM (inactive) in test [4]; 48.2 µM (inactive) in test [5]; 224 µM (inactive) in test [6]. The GI50 in [7] is 225 µM (inactive); in test [8], 818 µM (inactive); in [9] it was 893 µM (inactive); in [10] it was 804 µM (inactive); in test [11] it was 50 µM (inactive); in test [12], 220 µM (inactive). Further, the GI50 in test [13] is 232 µM (inactive); in test [14], 38.7 µM (inactive); in test [15] it was 225 µM (inactive); in [16] it was 526 µM (inactive); in test [17], 112 µM (inactive); in test [18] it was 67.8 µM (inactive). Also, the GI50 in test [19] is 52.8 µM (inactive); in [20] it was 335 µM (inactive).
